Source: patent US11529341B2, “Bicyclic compounds as inhibitors of PD1/PD-L1 interaction/activation” (JUBILANT PRODEL LLC, priority 2018, dated 2022)

What follows are compounds tested against T1, PD-1/PD-L1 interaction (Homo sapiens, UniProt Q9NZQ7) (assay: PD-1/PD-L1 Homogenous Time-Resolved Fluorescence (HTRF) binding assay (CisBio kit)). Conditions: Biochemical PD1/PD-L1 inhibition.
T1 construct: Tag1 (undisclosed kit tag); purchased CisBio 63ADK000CPAPEG
In short: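 Tagged PD-L1 and PD-1 proteins preincubated with compound 15 min, then anti-Tag1-Eu3+ donor and anti-Tag2-XL665 acceptor added, 1 h at room temperature. Emission read at 665 and 620 nm; signal expressed as HTRF ratio (665/620)×10^4, loss of signal indicating blocked binding.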

T1 sequence (Q9NZQ7 19-238 limits assumed): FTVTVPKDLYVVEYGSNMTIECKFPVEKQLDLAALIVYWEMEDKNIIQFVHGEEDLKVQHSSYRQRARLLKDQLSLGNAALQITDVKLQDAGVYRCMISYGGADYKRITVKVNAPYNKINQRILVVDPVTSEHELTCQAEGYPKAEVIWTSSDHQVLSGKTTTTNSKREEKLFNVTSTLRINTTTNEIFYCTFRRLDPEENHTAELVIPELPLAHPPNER

| IC50 | Structure (SMILES) |
| --- | --- |
| 100 to 500 nM | Cc1c(COc2cc(OC[C@H]3C[C@H]3C(=O)O)c(CN3CCCC[C@H]3C(=O)O)c3c2CCC3)cccc1-c1ccccc1 [Compound 82, (S)-1-((5-(((1S,2R)-2-carboxycyclopropyl)methoxy)-7-((2-methyl-[1,1′-biphenyl]-3-yl)methoxy)-2,3-dihydro-1H-inden-4-yl)methyl)piperidine-2-carboxylic acid] |
| 100 to 500 nM | CC(=O)NCCNCc1c(OC[C@H]2C[C@H]2C(=O)O)cc(OCc2cccc(-c3ccccc3)c2C)c2c1CCC2 [Compound 83, (1R,2S)-2-(((4-(((2-acetamidoethyl)amino)methyl)-7-((2-methyl-[1,1′-biphenyl]-3-yl)methoxy)-2,3-dihydro-1H-inden-5-yl)oxy)methyl)cyclopropane-1-carboxylic acid] |
| < 100 nM | COc1cc(OCc2cccc(-c3ccc4c(c3)OCCO4)c2C)c2c(c1CN1CCCC[C@H]1C(=O)O)CCC2 [Compound 84, (S)-1-((7-((3-(2,3-dihydrobenzo[b][1,4]dioxin-6-yl)-2-methylbenzyl)oxy)-5-methoxy-2,3-dihydro-1H-inden-4-yl)methyl)piperidine-2-carboxylic acid] |
| 100 to 500 nM | COc1cc(OCc2cccc(-c3ccc4c(c3)OCCO4)c2C)c2c(c1CN1C[C@H](O)C[C@H]1C(=O)O)CCC2 [Compound 85, (2S,4R)-1-((7-((3-(2,3-dihydrobenzo[b][1,4]dioxin-6-yl)-2-methylbenzyl)oxy)-5-methoxy-2,3-dihydro-1H-inden-4-yl)methyl)-4-hydroxypyrrolidine-2-carboxylic acid] |
| 100 to 500 nM | CC(=O)NCCNCc1c(OCc2cccc(C#N)c2)cc(OCc2cccc(-c3ccccc3C)c2C)c2c1CCC2 [Compound 86, N-(2-(((5-((3-cyanobenzyl)oxy)-7-((2,2′-dimethyl-[1,1′-biphenyl]-3-yl)methoxy)-2,3-dihydro-1H-inden-4-yl)methyl)amino)ethyl)acetamide] |
| 100 to 500 nM | CC(=O)NCCNCc1c(OCc2cccc(C#N)c2)cc(OCc2cccc(-c3ccc(F)cc3)c2C)c2c1CCC2 [Compound 87, N-(2-(((5-((3-cyanobenzyl)oxy)-7-((4′-fluoro-2-methyl-[1,1′-biphenyl]-3-yl)methoxy)-2,3-dihydro-1H-inden-4-yl)methyl)amino)ethyl)acetamide] |
| 100 to 500 nM | Cc1c(COc2cc(OCc3cccc(C(N)=O)c3)c(CN3CCCC[C@H]3C(=O)O)c3c2CCC3)cccc1-c1ccccc1 [Compound 88, (S)-1-((5-((3-carbamoylbenzyl)oxy)-7-((2-methyl-[1,1′-biphenyl]-3-yl)methoxy)-2,3-dihydro-1H-inden-4-yl)methyl)piperidine-2-carboxylic acid] |
| < 100 nM | Cc1c(COc2cc(OCc3cccc(C#N)c3)c(CN)c3c2CCC3)cccc1-c1ccccc1 [Compound 89, 3-(((4-(aminomethyl)-7-((2-methyl-[1,1′-biphenyl]-3-yl)methoxy)-2,3-dihydro-1H-inden-5-yl)oxy)methyl)benzonitrile] |
| > 500 nM | CC(=O)NCc1c(OCc2cccc(C#N)c2)cc(OCc2cccc(-c3ccccc3)c2C)c2c1CCC2 [Compound 90, N-((5-((3-cyanobenzyl)oxy)-7-((2-methyl-[1,1′-biphenyl]-3-yl)methoxy)-2,3-dihydro-1H-inden-4-yl)methyl)acetamide] |
| > 500 nM | CC(=O)NCCCCCC(=O)NCc1c(OCc2cccc(C#N)c2)cc(OCc2cccc(-c3ccccc3)c2C)c2c1CCC2 [Compound 91, 6-acetamido-N-((5-((3-cyanobenzyl)oxy)-7-((2-methyl-[1,1′-biphenyl]-3-yl)methoxy)-2,3-dihydro-1H-inden-4-yl)methyl)hexanamide] |
| < 100 nM | Cc1c(COc2cc(OCc3cccc(C#N)c3)c(CN(C)C)c3c2CCC3)cccc1-c1ccccc1 [Compound 92, 3-(((4-((dimethylamino)methyl)-7-((2-methyl-[1,1′-biphenyl]-3-yl)methoxy)-2,3-dihydro-1H-inden-5-yl)oxy)methyl)benzonitrile] |
| < 100 nM | CC(=O)NCCNCc1c(OCc2cncc(C(=O)O)c2)cc(OCc2cccc(-c3ccccc3)c2C)c2c1CCC2 [Compound 93, 5-(((4-(((2-acetamidoethyl)amino)methyl)-7-((2-methyl-[1,1′-biphenyl]-3-yl)methoxy)-2,3-dihydro-1H-inden-5-yl)oxy)methyl)nicotinic acid] |
| < 100 nM | CC(=O)NCCNCc1c(OCc2cncc(C(N)=O)c2)cc(OCc2cccc(-c3ccccc3)c2C)c2c1CCC2 [Compound 94, 5-(((4-(((2-acetamidoethyl)amino)methyl)-7-((2-methyl-[1,1′-biphenyl]-3-yl)methoxy)-2,3-dihydro-1H-inden-5-yl)oxy)methyl)nicotinamide] |
| < 100 nM | CC(=O)NCCNCc1c(OCc2cccc(C(N)=O)c2)cc(OCc2cccc(-c3ccccc3)c2C)c2c1CCC2 [Compound 95, 3-(((4-(((2-acetamidoethyl)amino)methyl)-7-((2-methyl-[1,1′-biphenyl]-3-yl)methoxy)-2,3-dihydro-1H-inden-5-yl)oxy)methyl)benzamide] |
| < 100 nM | COc1nc(OCc2cccc(-c3ccccc3)c2C)c2c(c1CNCCNC(C)=O)CCC2 [Compound 97, N-(2-(((3-methoxy-1-((2-methyl-[1,1′-biphenyl]-3-yl)methoxy)-6,7-dihydro-5H-cyclopenta[c]pyridin-4-yl)methyl)amino)ethyl)acetamide] |
| < 100 nM | COc1cc(OCc2cccc(-c3ccccc3)c2C)c2c(c1CN1CCOC[C@H]1C(=O)O)CCC2 [Compound 98, (S)-4-((5-methoxy-7-((2-methyl-[1,1′-biphenyl]-3-yl)methoxy)-2,3-dihydro-1H-inden-4-yl)methyl)morpholine-3-carboxylic acid] |

| Structure (SMILES) | IC50 |
| --- | --- |
| Cc1c(COc2cc(OCCCCC#N)c(CN3CCCC[C@H]3C(N)=O)c3c2CCC3)cccc1-c1ccccc1 [Compound 80, (S)-1-((5-(4-cyanobutoxy)-7-((2-methyl-[1,1′-biphenyl]-3-yl)methoxy)-2,3-dihydro-1H-inden-4-yl)methyl)piperidine-2-carboxamide] | > 500 nM |
| Cc1c(COc2cc(OCCCCC#N)c(CN3C[C@H](O)C[C@H]3C(=O)O)c3c2CCC3)cccc1-c1ccccc1 [Compound 81, (2S,4R)-1-((5-(4-cyanobutoxy)-7-((2-methyl-[1,1′-biphenyl]-3-yl)methoxy)-2,3-dihydro-1H-inden-4-yl)methyl)-4-hydroxypyrrolidine-2-carboxylic acid] | < 100 nM |
